As usually defined, the IC50 is the concentration that inhibits the measured activity by half.

The values that follow come from ChEMBL document CHEMBL5729134, “Apoptosis signal-regulating kinase 1 inhibitors and methods of use thereof” (2022).

The structures appear in SMILES notation. Bounds are passed on as bounds.

The test concerns the target T1, Mitogen-activated protein kinase kinase kinase 5 (Homo sapiens, UniProt Q99683).
T1 sequence (Q99683 whole entry): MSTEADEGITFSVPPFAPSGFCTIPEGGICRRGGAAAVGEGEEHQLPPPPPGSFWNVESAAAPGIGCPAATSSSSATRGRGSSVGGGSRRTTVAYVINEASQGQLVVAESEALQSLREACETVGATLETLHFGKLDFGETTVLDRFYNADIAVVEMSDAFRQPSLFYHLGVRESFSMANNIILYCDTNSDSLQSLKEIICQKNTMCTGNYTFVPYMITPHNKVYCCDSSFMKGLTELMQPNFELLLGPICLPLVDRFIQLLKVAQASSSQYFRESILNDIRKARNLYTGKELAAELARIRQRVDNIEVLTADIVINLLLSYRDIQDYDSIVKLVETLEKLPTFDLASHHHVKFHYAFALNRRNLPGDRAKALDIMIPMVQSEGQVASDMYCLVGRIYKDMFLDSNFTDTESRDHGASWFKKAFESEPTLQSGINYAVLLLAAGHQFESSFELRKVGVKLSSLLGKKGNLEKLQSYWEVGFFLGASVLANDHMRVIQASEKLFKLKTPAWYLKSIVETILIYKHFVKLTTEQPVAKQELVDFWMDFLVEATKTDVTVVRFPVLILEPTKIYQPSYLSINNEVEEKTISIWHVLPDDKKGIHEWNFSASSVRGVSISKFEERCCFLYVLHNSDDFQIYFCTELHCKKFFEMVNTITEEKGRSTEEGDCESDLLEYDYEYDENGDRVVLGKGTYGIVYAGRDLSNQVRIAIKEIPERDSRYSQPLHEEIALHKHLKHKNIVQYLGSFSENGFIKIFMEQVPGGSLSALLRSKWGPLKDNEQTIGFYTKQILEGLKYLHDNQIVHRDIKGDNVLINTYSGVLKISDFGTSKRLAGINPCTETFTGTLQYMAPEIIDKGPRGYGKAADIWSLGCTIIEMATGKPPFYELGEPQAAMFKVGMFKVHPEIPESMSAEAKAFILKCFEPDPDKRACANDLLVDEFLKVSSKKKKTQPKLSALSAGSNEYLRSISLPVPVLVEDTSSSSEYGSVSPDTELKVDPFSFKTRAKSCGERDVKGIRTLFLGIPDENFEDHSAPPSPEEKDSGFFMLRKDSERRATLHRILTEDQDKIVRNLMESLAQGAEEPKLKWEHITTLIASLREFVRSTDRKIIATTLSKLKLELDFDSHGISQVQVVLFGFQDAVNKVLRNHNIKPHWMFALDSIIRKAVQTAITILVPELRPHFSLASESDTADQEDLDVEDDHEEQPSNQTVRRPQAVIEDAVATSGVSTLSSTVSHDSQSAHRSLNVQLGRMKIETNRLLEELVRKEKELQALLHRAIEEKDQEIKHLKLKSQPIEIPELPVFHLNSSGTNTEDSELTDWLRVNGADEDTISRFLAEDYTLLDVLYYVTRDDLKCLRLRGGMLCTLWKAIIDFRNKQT
In words: HTRF KinEASE Assay : ASK1 was purchased from Thermofisher (Catalogue #PV4011), ATP was purchased from Sigma (Catalogue #A7699), HTRF® KinEASE Assay System was obtained from Cisbio (Bedford, Mass.). ½ Area plate was purchased from Perkin Elmer (Catalogue ##6005560). HTRF® KinEASE-STK is a generic method for measuring serine/threonine kinase activities using a time-resolved fluorescence resonance energy transfer (TR-FRET) immunoassay. The IC50 value for each compound was determined in the presence of compound (various concentration from 0 to 10 μM) and a fixed amount of ATP and peptide substrates. The test compound, 1 μM STK3 peptide substrate, and […] are incubated with kinase reaction buffer containing 50 mM HEPES Ph 7.5, 0.01% BRIJ-35, 10 mM MgCl2, and 1 mM EGTA for 30 minutes. 100 μM ATP is added to start kinase reaction and incubated for 3 hours. The STK3-antibody labeled with Eu3+-Cryptate and 125 nM streptavidin-XL665 are mixed in a single addition with stop reagents provided by the Cisbio kit used to stop the kinase reaction. Fluorescence is detected using an Envision Multilabeled 2014 reader from PerkinElmer. The Fluorescence is measured at 615 nm (Cryptate) and 665 nm (XL665) and a ratio of 665 nm/615 nm is calculated for each well. The resulting TR-FRET is proportional to the phosphorylation level. Staurosporine was used as the positive control. IC50 was determined by Xlfit 5.3.
On to `COc1cc2c(cc1C(=O)Nc1cccc(-c3nncn3[C@H](C)CO)n1)CN(C(=O)OC(C)C)CC2`, for which the IC50 is 1.25 to 10 nM.

On to `COc1cc2c(cc1C(=O)Nc1cccc(-c3nncn3C(C)C)n1)CN(C(=O)C(C)(C)C)CC2`, for which the IC50 is 1.25 to 10 nM. For the molecule `CC(C)OC(=O)N1CCc2cc(F)c(C(=O)Nc3cccc(-c4nncn4[C@H](C)CO)n3)cc2C1`, the IC50 was less than 1.25 nM. As for `COc1cc2c(cc1C(=O)Nc1cccc(-c3nncn3[C@H](C)CO)n1)CN(C(=O)C(C)(C)C)CC2`, the IC50 is less than 1.25 nM. `COc1cc2c(cc1C(=O)Nc1cccc(-c3nnnn3[C@H](C)CO)n1)CN(C(=O)C(C)(C)C)CC2`: the half-inhibitory concentration (IC50) was less than 1.25 nM. Next, `CCNC(=O)N1CCc2cc(F)c(C(=O)Nc3cccc(-c4nncn4[C@H](C)CO)n3)cc2C1`: less than 1.25 nM. For the molecule `COc1cc2c(cc1C(=O)Nc1cccc(-c3nncn3C(C)C)n1)CN(C(=O)N1CCCC1)CC2`, the IC50 is less than 1.25 nM.

In the case of `COc1cc2c(cc1C(=O)Nc1cccc(-c3nnnn3[C@H](C)CO)n1)CN(C(C)C)CC2`, the IC50 is less than 1.25 nM. Next, `COc1cc2c(cc1C(=O)Nc1cccc(-c3nncn3[C@H](C)CO)n1)CN(C(C)C)CC2`: less than 1.25 nM; `COc1cc2c(cc1C(=O)Nc1cccc(-c3nnnn3[C@H](C)CO)n1)CN(C(=O)C[C@H](C)O)CC2`: less than 1.25 nM; `COc1cc2c(cc1C(=O)Nc1cccc(-c3nncn3C(C)C)n1)CN(S(=O)(=O)CCC(F)(F)F)CC2`: 1.25 to 10 nM. In the case of `COc1cc2c(cc1C(=O)Nc1cccc(-c3nnnn3C(C)C)n1)CN(C(=O)C(C)(C)C)CC2`, the 50% inhibitory concentration (IC50) was less than 1.25 nM.

As to `COc1cc2c(cc1C(=O)Nc1cccc(-c3nnnn3[C@@H]3CCC[C@@H]3O)n1)CN(C(=O)OCC(F)(F)F)CC2`, the half-inhibitory concentration (IC50) was 1.25 to 10 nM. Consider `COc1cc2c(cc1C(=O)Nc1cccc(-c3nncn3[C@H](C)CO)n1)CN(S(=O)(=O)CCC(F)(F)F)CC2`, for which the 50% inhibitory concentration (IC50) was less than 1.25 nM. Regarding `COc1cc2c(cc1C(=O)Nc1cccc(-c3nnnn3[C@H](C)CO)n1)CN(C(=O)C(C)(C)CO)CC2`, the half-inhibitory concentration (IC50) was 1.25 to 10 nM. Regarding `C[C@H](CO)n1cnnc1-c1cccc(NC(=O)c2cc3c(cc2F)CCN(C(=O)N(C)C)C3)n1`, the IC50 was 1.25 to 10 nM. Next, `COc1cc2c(cc1C(=O)Nc1cccc(-c3nncn3C(C)C)n1)CN(S(=O)(=O)C1CC1)CC2`: 1.25 to 10 nM; `C[C@H](CO)n1cnnc1-c1cccc(NC(=O)c2cc3c(cn2)CCN(C(=O)N2CCCC2)C3)n1`: 1.25 to 10 nM; `COc1cc2c(cc1C(=O)Nc1cccc(-c3nnnn3C(C)C)n1)CN(C(=O)N1CCCC1)CC2`: less than 1.25 nM. For the molecule `CC(C)n1cnnc1-c1cccc(NC(=O)c2cc3c(cn2)CCN(C(=O)N2CCCC2)C3)n1`, the half-maximal inhibitory concentration (IC50) was less than 1.25 nM. Next, `C[C@H](CO)n1cnnc1-c1cccc(NC(=O)c2cc3c(cc2F)CCN(C(=O)N2CCCC2)C3)n1`: less than 1.25 nM. The same measure for `CCOC(=O)N1CCc2cc(OC)c(C(=O)Nc3cccc(-c4nnnn4[C@H](C)CO)n3)cc2C1`: 1.25 to 10 nM; for `COc1cc2c(cc1C(=O)Nc1cccc(-c3nnnn3C(C)C)n1)CN(S(=O)(=O)CCC(F)(F)F)CC2`: 1.25 to 10 nM.

Consider `COc1cc2c(cc1C(=O)Nc1cccc(-c3nncn3C(C)C)n1)CN(C(=O)OCC(F)(F)F)CC2`, for which the IC50 is less than 1.25 nM.
